Paper PMC10192418, “High-affinity peptides developed against calprotectin and their application as synthetic ligands in diagnostic assays” (Nature Communications, 2023)
pKd: −log10 of the molar value. Where two headings read alike, the source gives them in different places. Numbered stars: 1 amine (or outer) side, 2 acyl side, 3 side chain; on linkers, the order of the positions; unused ones are H or OH. Bridge positions count the residues as written; N and C are the ends. Peptide text beside a SMILES is read from it. * marks the point of attachment. 5FAM = O=C1OC2(c3ccc(O)cc3Oc3cc(O)ccc32)c2ccc(C(=O)*)cc21; Pyridine(2,6-diCH2) = c1cc(C[*:1])nc(C[*:2])c1

Biological target: T1, calprotectin tetramer (recombinant B-RCAL, His6-linker-S100A9-linker-S100A8) (Homo sapiens, UniProt P05109)
T1 construct: we used the recombinant protein without removing the His-tag or cleaving the 8-amino acid linker between the two proteins; co-authors' company
T1 sequence (P05109 with tags, fused parts or gaps): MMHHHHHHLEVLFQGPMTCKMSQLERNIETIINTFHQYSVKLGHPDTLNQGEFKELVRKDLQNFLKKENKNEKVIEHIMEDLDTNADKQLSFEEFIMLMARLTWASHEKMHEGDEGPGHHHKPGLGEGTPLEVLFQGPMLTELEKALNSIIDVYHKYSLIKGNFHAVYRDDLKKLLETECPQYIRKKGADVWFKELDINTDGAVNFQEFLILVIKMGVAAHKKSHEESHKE
Test: Fluorescence polarization (FP) binding to recombinant calprotectin B-RCAL tetramer in presence of CaCl2
Protocol: Calprotectin was serially diluted in 20 mM HEPES, 100 mM NaCl, 2 mM CaCl2, pH 7.5, and 1 mM DTT with 0.01% (v/v) Tween-20. Volumes of 16 μL of protein were added to 4 μL of fluorescent peptide (20 nM final concentration) in black 384-well microtiter plates. Fluorescence anisotropy was measured on a microwell plate reader (Infinite M200Pro, Tecan) with filters for excitation at 485 nm and emission at 535 nm. The dissociation constant (Kd) was calculated using a following Eq. (1) using Prism 5 software (GraphPad):1 A=Af+Ab−Af×LT+KD+PT−LT+KD+PT^2−4LTPT/2LT where A is anisotropy, Af and Ab are the anisotropy values for free and bound ligands, respectively. [L]T is the concentration of the total fluorescent ligand and [P]T the concentration of the protein.

[1] = FP, alanine scan of linear peptide 3, 20 nM peptide, 2 mM CaCl2, one measurement, NB = non-binding

SMILES	pKd [1]	further results
CSCC[C@H](NC(=O)[C@@H]1CCCN1C(=O)[C@H](Cc1ccccc1)NC(=O)[C@H](C)NC(=O)[C@@H](NC(=O)[C@H](CO)NC(=O)[C@H](CCC(=O)O)NC(=O)[C@@H]1CCCN1C(=O)[C@H](CO)NC(=O)[C@H](CCCNC(=N)N)NC(=O)c1ccc2c(c1)C(=O)OC21c2ccc(O)cc2Oc2cc(O)ccc21)C(C)C)C(=O)N[C@@H](Cc1ccccc1)C(=O)N[C@@H](CCC(N)=O)C(=O)N[C@H]1CSCC(=O)CSC[C@@H](C(=O)NCC(N)=O)NC(=O)[C@H](Cc2ccc(O)cc2)NC(=O)[C@H](Cc2c[nH]c3ccccc23)NC(=O)[C@H](Cc2c[nH]cn2)NC1=O (single isomer, unassigned) [Peptide 3 Isomer 1b]		pKd: 7.75
CSCC[C@H](NC(=O)[C@@H]1CCCN1C(=O)[C@H](Cc1ccccc1)NC(=O)[C@H](C)NC(=O)[C@@H](NC(=O)[C@H](CO)NC(=O)[C@H](CCC(=O)O)NC(=O)[C@@H]1CCCN1C(=O)[C@H](CO)NC(=O)[C@H](CCCNC(=N)N)NC(=O)c1ccc2c(c1)C(=O)OC21c2ccc(O)cc2Oc2cc(O)ccc21)C(C)C)C(=O)N[C@@H](Cc1ccccc1)C(=O)N[C@@H](CCC(N)=O)C(=O)N[C@@H](CO)C(=O)N[C@@H](Cc1c[nH]cn1)C(=O)N[C@@H](Cc1c[nH]c2ccccc12)C(=O)N[C@@H](Cc1ccc(O)cc1)C(=O)N[C@@H](CO)C(=O)N[C@@H](C)C(N)=O [Peptide G18A] (5FAM-RSPESVAFPMFQSHWYSA-NH2)	7.51	
CC[C@H](C)[C@@H]1NC(=O)[C@H](CO)NC(=O)[C@H](Cc2c[nH]c3ccccc23)NC(=O)[C@H](CCCNC(=N)N)NC(=O)[C@@H](NC(=O)[C@H](Cc2ccccc2)NC(=O)[C@@H]2CCCN2C(=O)c2ccc3c(c2)C(=O)OC32c3ccc(O)cc3Oc3cc(O)ccc32)CSCc2cccc(n2)CSC[C@@H](C(=O)N[C@@H](Cc2c[nH]cn2)C(N)=O)NC(=O)[C@H](CC(N)=O)NC(=O)[C@H](CC(=O)O)NC1=O [Peptide 9] (5FAM-PFCRWSIDNCH-NH2; linker 3-10 via Pyridine(2,6-diCH2))		pKd (from fluorescence anisotropy titration, SI Figure 3): 4.54
CSCC[C@H](NC(=O)[C@@H]1CCCN1C(=O)[C@H](Cc1ccccc1)NC(=O)[C@H](C)NC(=O)[C@@H](NC(=O)[C@H](CO)NC(=O)[C@H](C)NC(=O)[C@@H]1CCCN1C(=O)[C@H](CO)NC(=O)[C@H](CCCNC(=N)N)NC(=O)c1ccc2c(c1)C(=O)OC21c2ccc(O)cc2Oc2cc(O)ccc21)C(C)C)C(=O)N[C@@H](Cc1ccccc1)C(=O)N[C@@H](CCC(N)=O)C(=O)N[C@@H](CO)C(=O)N[C@@H](Cc1c[nH]cn1)C(=O)N[C@@H](Cc1c[nH]c2ccccc12)C(=O)N[C@@H](Cc1ccc(O)cc1)C(=O)N[C@@H](CO)C(=O)NCC(N)=O [Peptide E4A] (5FAM-RSPASVAFPMFQSHWYSG-NH2)	7.59	
CSCC[C@H](NC(=O)[C@@H]1CCCN1C(=O)[C@H](Cc1ccccc1)NC(=O)[C@H](C)NC(=O)[C@@H](NC(=O)[C@H](CO)NC(=O)[C@H](CCC(=O)O)NC(=O)[C@@H]1CCCN1C(=O)[C@H](CO)NC(=O)[C@H](CCCNC(=N)N)NC(=O)c1ccc2c(c1)C(=O)OC21c2ccc(O)cc2Oc2cc(O)ccc21)C(C)C)C(=O)N[C@@H](Cc1ccccc1)C(=O)N[C@@H](C)C(=O)N[C@@H](CO)C(=O)N[C@@H](Cc1c[nH]cn1)C(=O)N[C@@H](Cc1c[nH]c2ccccc12)C(=O)N[C@@H](Cc1ccc(O)cc1)C(=O)N[C@@H](CO)C(=O)NCC(N)=O [Peptide Q12A] (5FAM-RSPESVAFPMFASHWYSG-NH2)	7.57	
CSCC[C@H](NC(=O)[C@@H]1CCCN1C(=O)[C@H](Cc1ccccc1)NC(=O)[C@H](C)NC(=O)[C@@H](NC(=O)[C@@H]1CSCC(=O)CSC[C@H](NC(=O)[C@H](CCCNC(=N)N)NC(=O)c2ccc3c(c2)C(=O)OC32c3ccc(O)cc3Oc3cc(O)ccc32)C(=O)N2CCC[C@H]2C(=O)N[C@@H](CCC(=O)O)C(=O)N1)C(C)C)C(=O)N[C@@H](Cc1ccccc1)C(=O)N[C@@H](CCC(N)=O)C(=O)N[C@@H](CO)C(=O)N[C@@H](Cc1c[nH]cn1)C(=O)N[C@@H](Cc1c[nH]c2ccccc12)C(=O)N[C@@H](Cc1ccc(O)cc1)C(=O)N[C@@H](CO)C(=O)NCC(N)=O (single isomer, unassigned) [Peptide 3 Isomer 1a]		pKd: 7.77
CSCC[C@H](NC(=O)[C@@H]1CCCN1C(=O)[C@H](Cc1ccccc1)NC(=O)[C@H](C)NC(=O)[C@@H](NC(=O)[C@H](CO)NC(=O)[C@H](CCC(=O)O)NC(=O)[C@@H]1CCCN1C(=O)[C@H](CO)NC(=O)[C@H](C)NC(=O)c1ccc2c(c1)C(=O)OC21c2ccc(O)cc2Oc2cc(O)ccc21)C(C)C)C(=O)N[C@@H](Cc1ccccc1)C(=O)N[C@@H](CCC(N)=O)C(=O)N[C@@H](CO)C(=O)N[C@@H](Cc1c[nH]cn1)C(=O)N[C@@H](Cc1c[nH]c2ccccc12)C(=O)N[C@@H](Cc1ccc(O)cc1)C(=O)N[C@@H](CO)C(=O)NCC(N)=O [Peptide R1A] (5FAM-ASPESVAFPMFQSHWYSG-NH2)	7.49	
CSCC[C@H](NC(=O)[C@@H]1CCCN1C(=O)[C@H](Cc1ccccc1)NC(=O)CNC(=O)[C@@H](NC(=O)[C@H](CO)NC(=O)[C@H](CCC(=O)O)NC(=O)[C@@H]1CCCN1C(=O)[C@H](CO)NC(=O)[C@H](CCCNC(=N)N)NC(=O)c1ccc2c(c1)C(=O)OC21c2ccc(O)cc2Oc2cc(O)ccc21)C(C)C)C(=O)N[C@@H](Cc1ccccc1)C(=O)N[C@@H](CCC(N)=O)C(=O)N[C@@H](CO)C(=O)N[C@@H](Cc1c[nH]cn1)C(=O)N[C@@H](Cc1c[nH]c2ccccc12)C(=O)N[C@@H](Cc1ccc(O)cc1)C(=O)N[C@@H](CO)C(=O)NCC(N)=O [Peptide A7G] (5FAM-RSPESVGFPMFQSHWYSG-NH2)	7.54	
CSCC[C@@H]1NC(=O)[C@@H]2CCCN2C(=O)[C@H](Cc2ccccc2)NC(=O)[C@H](C)NC(=O)[C@H](C(C)C)NC(=O)[C@@H]2CSCC(=O)CSC[C@H](NC(=O)[C@H](CCC(N)=O)NC(=O)[C@H](Cc3ccccc3)NC1=O)C(=O)N[C@@H](Cc1c[nH]cn1)C(=O)N[C@@H](Cc1c[nH]c3ccccc13)C(=O)N[C@@H](Cc1ccc(O)cc1)C(=O)N[C@H](C(=O)NCC(N)=O)CSCC(=O)CSC[C@H](NC(=O)[C@H](CCCNC(=N)N)NC(=O)c1ccc3c(c1)C(=O)OC31c3ccc(O)cc3Oc3cc(O)ccc31)C(=O)N1CCC[C@H]1C(=O)N[C@@H](CCC(=O)O)C(=O)N2 (single isomer, unassigned) [Peptide 3 Isomer 3]		FP increase upon binding to calprotectin (FP, 2 mM CaCl2): 10–15%
CSCC[C@H](NC(=O)[C@@H]1CCCN1C(=O)[C@H](Cc1ccccc1)NC(=O)[C@H](C)NC(=O)[C@H](C)NC(=O)[C@H](CO)NC(=O)[C@H](CCC(=O)O)NC(=O)[C@@H]1CCCN1C(=O)[C@H](CO)NC(=O)[C@H](CCCNC(=N)N)NC(=O)c1ccc2c(c1)C(=O)OC21c2ccc(O)cc2Oc2cc(O)ccc21)C(=O)N[C@@H](Cc1ccccc1)C(=O)N[C@@H](CCC(N)=O)C(=O)N[C@@H](CO)C(=O)N[C@@H](Cc1c[nH]cn1)C(=O)N[C@@H](Cc1c[nH]c2ccccc12)C(=O)N[C@@H](Cc1ccc(O)cc1)C(=O)N[C@@H](CO)C(=O)NCC(N)=O [Peptide V6A] (5FAM-RSPESAAFPMFQSHWYSG-NH2)	7.41	
